Experimental data taken from ChEMBL document CHEMBL1201861, “Genomics of Drug Sensitity in Cancer screening data, Wellcome Trust Sanger Institute”.

What follows are compounds tested on KE-37 (assay: cells). Settings: Homo sapiens, KE-37.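 Note: growth inhibition of KE-37 cells, read out with a cell viability assay.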
Type: functional, cell-based, Homo sapiens
Description: SANGER: Inhibition of human KE-37 cell growth in a cell viability assay.
For `C#Cc1cccc(Nc2ncnc3cc(OCCOC)c(OCCOC)cc23)c1` [ERLOTINIB], the IC50 was > 2000 nM.

These compounds were tested on TK-10 (assay: cells). Settings: Homo sapiens, TK-10.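 Note: growth inhibition of TK-10 cells, read out in a cell viability assay.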
Type: functional, cell-based, Homo sapiens
Description: SANGER: Inhibition of human TK10 cell growth in a cell viability assay.
Compound `C#Cc1cccc(Nc2ncnc3cc(OCCOC)c(OCCOC)cc23)c1` [ERLOTINIB] has an IC50 of 859 nM.

The compounds below were run on HL-60 (assay: cells). Settings: Homo sapiens, HL-60.
Type: functional, cell-based, Homo sapiens
Description: SANGER: Inhibition of human HL-60 cell growth in a cell viability assay.
In the case of `C#Cc1cccc(Nc2ncnc3cc(OCCOC)c(OCCOC)cc23)c1` [ERLOTINIB], the IC50 is reported as > 2000 nM.

The compounds below were run on NCI-H1838 (assay: cells). Settings: Homo sapiens, NCI-H1838.
Type: functional, cell-based, Homo sapiens
Description: SANGER: Inhibition of human NCI-H1838 cell growth in a cell viability assay.
With `C#Cc1cccc(Nc2ncnc3cc(OCCOC)c(OCCOC)cc23)c1` [ERLOTINIB] the IC50 was > 2000 nM.

What follows are compounds tested on KURAMOCHI (assay: cells). Settings: Homo sapiens, KURAMOCHI.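 Note: growth inhibition of KURAMOCHI cells, read out with a cell viability assay.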
Type: functional, cell-based, Homo sapiens
Description: SANGER: Inhibition of human KURAMOCHI cell growth in a cell viability assay.
In the case of `C#Cc1cccc(Nc2ncnc3cc(OCCOC)c(OCCOC)cc23)c1` [ERLOTINIB], the IC50 is reported as > 2000 nM.

What follows are compounds tested on IST-MES1 (assay: cells). Settings: Homo sapiens, IST-MES1.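 Note: growth inhibition of IST-MES1 cells, measured with a cell viability assay.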
Type: functional, cell-based, Homo sapiens
Description: SANGER: Inhibition of human IST-MES1 cell growth in a cell viability assay.
`C#Cc1cccc(Nc2ncnc3cc(OCCOC)c(OCCOC)cc23)c1` [ERLOTINIB] was tested, and the IC50 was > 2000 nM.

The compounds below were run on GI-1 (assay: cells). Settings: Homo sapiens, GI-1.
Type: functional, cell-based, Homo sapiens
Description: SANGER: Inhibition of human GI-1 cell growth in a cell viability assay.
`C#Cc1cccc(Nc2ncnc3cc(OCCOC)c(OCCOC)cc23)c1` [ERLOTINIB] was tested, and the IC50 was > 2000 nM.

Each compound was assayed on LU-134-A (assay: cells). Settings: Homo sapiens, LU-134-A.
Type: functional, cell-based, Homo sapiens
Description: SANGER: Inhibition of human LU-134-A cell growth in a cell viability assay.
`C#Cc1cccc(Nc2ncnc3cc(OCCOC)c(OCCOC)cc23)c1` [ERLOTINIB] was tested, and the IC50 was > 2000 nM.

Each compound was assayed on KG-1 (assay: cells). Settings: Homo sapiens, KG-1.
Type: functional, cell-based, Homo sapiens
Description: SANGER: Inhibition of human KG-1 cell growth in a cell viability assay.
With `C#Cc1cccc(Nc2ncnc3cc(OCCOC)c(OCCOC)cc23)c1` [ERLOTINIB] the IC50 was > 2000 nM.

These compounds were tested on COLO-320-HSR (assay: cells). Settings: Homo sapiens, COLO-320-HSR.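 Note: growth inhibition of COLO-320-HSR cells, determined with a cell viability assay.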
Type: functional, cell-based, Homo sapiens
Description: SANGER: Inhibition of human COLO-320-HSR cell growth in a cell viability assay.
With `C#Cc1cccc(Nc2ncnc3cc(OCCOC)c(OCCOC)cc23)c1` [ERLOTINIB] the IC50 was > 2000 nM.

What follows are compounds tested on MC116 (assay: cells). Settings: Homo sapiens, MC116.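 Note: growth inhibition of MC116 cells, read out with a cell viability assay.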
Type: functional, cell-based, Homo sapiens
Description: SANGER: Inhibition of human MC116 cell growth in a cell viability assay.
`C#Cc1cccc(Nc2ncnc3cc(OCCOC)c(OCCOC)cc23)c1` [ERLOTINIB] was tested, and the IC50 was > 2000 nM.

Each compound was assayed on MEG-01 (assay: cells). Settings: Homo sapiens, MEG-01.
Type: functional, cell-based, Homo sapiens
Description: SANGER: Inhibition of human MEG-01 cell growth in a cell viability assay.
In the case of `C#Cc1cccc(Nc2ncnc3cc(OCCOC)c(OCCOC)cc23)c1` [ERLOTINIB], the IC50 is reported as > 2000 nM.

What follows are compounds tested on COR-L88 (assay: cells). Settings: Homo sapiens, COR-L88.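 Note: growth inhibition of COR-L88 cells, read out with a cell viability assay.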
Type: functional, cell-based, Homo sapiens
Description: SANGER: Inhibition of human COR-L88 cell growth in a cell viability assay.
`C#Cc1cccc(Nc2ncnc3cc(OCCOC)c(OCCOC)cc23)c1` [ERLOTINIB] was tested, and the IC50 was > 2000 nM.

Each compound was assayed on LB373-MEL-D (assay: cells). Settings: Homo sapiens, LB373-MEL-D.
Type: functional, cell-based, Homo sapiens
Description: SANGER: Inhibition of human LB373-MEL-D cell growth in a cell viability assay.
With `C#Cc1cccc(Nc2ncnc3cc(OCCOC)c(OCCOC)cc23)c1` [ERLOTINIB] the IC50 was > 2000 nM.

The compounds below were run on KINGS-1 (assay: cells). Settings: Homo sapiens, KINGS-1.
Type: functional, cell-based, Homo sapiens
Description: SANGER: Inhibition of human KINGS-1 cell growth in a cell viability assay.
For `C#Cc1cccc(Nc2ncnc3cc(OCCOC)c(OCCOC)cc23)c1` [ERLOTINIB], the IC50 was > 2000 nM.

These compounds were tested on Mo (assay: cells). Settings: Homo sapiens, Mo.
Type: functional, cell-based, Homo sapiens
Description: SANGER: Inhibition of human Mo-T cell growth in a cell viability assay.
With `C#Cc1cccc(Nc2ncnc3cc(OCCOC)c(OCCOC)cc23)c1` [ERLOTINIB] the IC50 was > 2000 nM.

The compounds below were run on SF-539 (assay: cells). Settings: Homo sapiens, SF-539.
Type: functional, cell-based, Homo sapiens
Description: SANGER: Inhibition of human SF539 cell growth in a cell viability assay.
`C#Cc1cccc(Nc2ncnc3cc(OCCOC)c(OCCOC)cc23)c1` [ERLOTINIB] was tested, and the IC50 was > 2000 nM.

Each compound was assayed on MLMA (assay: cells). Settings: Homo sapiens, MLMA.
Type: functional, cell-based, Homo sapiens
Description: SANGER: Inhibition of human MLMA cell growth in a cell viability assay.
`C#Cc1cccc(Nc2ncnc3cc(OCCOC)c(OCCOC)cc23)c1` [ERLOTINIB] was tested, and the IC50 was > 2000 nM.

The compounds below were run on HD-MY-Z (assay: cells). Settings: Homo sapiens, HD-MY-Z.
Type: functional, cell-based, Homo sapiens
Description: SANGER: Inhibition of human HD-MY-Z cell growth in a cell viability assay.
With `C#Cc1cccc(Nc2ncnc3cc(OCCOC)c(OCCOC)cc23)c1` [ERLOTINIB] the IC50 was > 2000 nM.

Each compound was assayed on EW-16 (assay: cells). Settings: Homo sapiens, EW-16.
Type: functional, cell-based, Homo sapiens
Description: SANGER: Inhibition of human EW-16 cell growth in a cell viability assay.
For `C#Cc1cccc(Nc2ncnc3cc(OCCOC)c(OCCOC)cc23)c1` [ERLOTINIB], the IC50 was > 2000 nM.

These compounds were tested on RCC10RGB (assay: cells). Settings: Homo sapiens, RCC10RGB.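 Note: growth inhibition of human RCC10RGB cells, read out by a cell viability assay.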
Type: functional, cell-based, Homo sapiens
Description: SANGER: Inhibition of human RCC10RGB cell growth in a cell viability assay.
With `C#Cc1cccc(Nc2ncnc3cc(OCCOC)c(OCCOC)cc23)c1` [ERLOTINIB] the IC50 was > 2000 nM.

Each compound was assayed on DJM-1 (assay: cells). Settings: Homo sapiens, DJM-1.
Type: functional, cell-based, Homo sapiens
Description: SANGER: Inhibition of human DJM-1 cell growth in a cell viability assay.
`C#Cc1cccc(Nc2ncnc3cc(OCCOC)c(OCCOC)cc23)c1` [ERLOTINIB] was tested, and the IC50 was > 2000 nM.

The compounds below were run on KM-H2 (assay: cells). Settings: Homo sapiens, KM-H2.
Type: functional, cell-based, Homo sapiens
Description: SANGER: Inhibition of human KM-H2 cell growth in a cell viability assay.
`C#Cc1cccc(Nc2ncnc3cc(OCCOC)c(OCCOC)cc23)c1` [ERLOTINIB] was tested, and the IC50 was > 2000 nM.

These compounds were tested on K562 (assay: cells). Settings: Homo sapiens, K562.
Type: functional, cell-based, Homo sapiens
Description: SANGER: Inhibition of human K-562 cell growth in a cell viability assay.
With `C#Cc1cccc(Nc2ncnc3cc(OCCOC)c(OCCOC)cc23)c1` [ERLOTINIB] the IC50 was > 2000 nM.

What follows are compounds tested on KS-1 (assay: cells). Settings: Homo sapiens, KS-1.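 Note: growth inhibition of KS-1 cells, read out with a cell viability assay.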
Type: functional, cell-based, Homo sapiens
Description: SANGER: Inhibition of human KS-1 cell growth in a cell viability assay.
In the case of `C#Cc1cccc(Nc2ncnc3cc(OCCOC)c(OCCOC)cc23)c1` [ERLOTINIB], the IC50 is reported as > 2000 nM.

Each compound was assayed on MMAC-SF (assay: cells). Settings: Homo sapiens, MMAC-SF.
Type: functional, cell-based, Homo sapiens
Description: SANGER: Inhibition of human MMAC-SF cell growth in a cell viability assay.
For `C#Cc1cccc(Nc2ncnc3cc(OCCOC)c(OCCOC)cc23)c1` [ERLOTINIB], the IC50 was > 2000 nM.

The compounds below were run on LU-139 (assay: cells). Settings: Homo sapiens, LU-139.
Type: functional, cell-based, Homo sapiens
Description: SANGER: Inhibition of human LU-139 cell growth in a cell viability assay.
With `C#Cc1cccc(Nc2ncnc3cc(OCCOC)c(OCCOC)cc23)c1` [ERLOTINIB] the IC50 was > 2000 nM.

Each compound was assayed on A388 (assay: cells). Settings: Homo sapiens, A388.
Type: functional, cell-based, Homo sapiens
Description: SANGER: Inhibition of human A388 cell growth in a cell viability assay.
With `C#Cc1cccc(Nc2ncnc3cc(OCCOC)c(OCCOC)cc23)c1` [ERLOTINIB] the IC50 was 1090 nM.

These compounds were tested on HCC1187 (assay: cells). Settings: Homo sapiens, HCC1187.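 Note: growth inhibition of HCC1187 cells, read out with a cell viability assay.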
Type: functional, cell-based, Homo sapiens
Description: SANGER: Inhibition of human HCC1187 cell growth in a cell viability assay.
`C#Cc1cccc(Nc2ncnc3cc(OCCOC)c(OCCOC)cc23)c1` [ERLOTINIB] was tested, and the IC50 was > 2000 nM.

The compounds below were run on NTERA-2-cl-D1 (assay: cells). Settings: Homo sapiens, NTERA-2-cl-D1.
Type: functional, cell-based, Homo sapiens
Description: SANGER: Inhibition of human NTERA-S-cl-D1 cell growth in a cell viability assay.
With `C#Cc1cccc(Nc2ncnc3cc(OCCOC)c(OCCOC)cc23)c1` [ERLOTINIB] the IC50 was > 2000 nM.

What follows are compounds tested on NCI-H1770 (assay: cells). Settings: Homo sapiens, NCI-H1770.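 Note: growth inhibition of NCI-H1770 cells determined with a viability readout.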
Type: functional, cell-based, Homo sapiens
Description: SANGER: Inhibition of human NCI-H1770 cell growth in a cell viability assay.
With `C#Cc1cccc(Nc2ncnc3cc(OCCOC)c(OCCOC)cc23)c1` [ERLOTINIB] the IC50 was > 2000 nM.

Each compound was assayed on PSN1 (assay: cells). Settings: Homo sapiens, PSN1.
Type: functional, cell-based, Homo sapiens
Description: SANGER: Inhibition of human PSN1 cell growth in a cell viability assay.
In the case of `C#Cc1cccc(Nc2ncnc3cc(OCCOC)c(OCCOC)cc23)c1` [ERLOTINIB], the IC50 is reported as > 2000 nM.

What follows are compounds tested on LB2241-RCC (assay: cells). Settings: Homo sapiens, LB2241-RCC.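 Note: cell viability assay measuring how strongly the cultured human renal carcinoma line is prevented from growing.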
Type: functional, cell-based, Homo sapiens
Description: SANGER: Inhibition of human LB2241-RCC cell growth in a cell viability assay.
For `C#Cc1cccc(Nc2ncnc3cc(OCCOC)c(OCCOC)cc23)c1` [ERLOTINIB], the IC50 was > 2000 nM.

Each compound was assayed on NCI-H23 (assay: cells). Settings: Homo sapiens, NCI-H23.
Type: functional, cell-based, Homo sapiens
Description: SANGER: Inhibition of human NCI-H23 cell growth in a cell viability assay.
With `C#Cc1cccc(Nc2ncnc3cc(OCCOC)c(OCCOC)cc23)c1` [ERLOTINIB] the IC50 was > 2000 nM.

The compounds below were run on A4-Fuk (assay: cells). Settings: Homo sapiens, A4-Fuk.
Type: functional, cell-based, Homo sapiens
Description: SANGER: Inhibition of human A4-Fuk cell growth in a cell viability assay.
In the case of `C#Cc1cccc(Nc2ncnc3cc(OCCOC)c(OCCOC)cc23)c1` [ERLOTINIB], the IC50 is reported as > 2000 nM.

What follows are compounds tested on RKO (assay: cells). Settings: Homo sapiens, RKO.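 Note: growth inhibition of human RKO cells, read out with a cell viability assay.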
Type: functional, cell-based, Homo sapiens
Description: SANGER: Inhibition of human RKO cell growth in a cell viability assay.
With `C#Cc1cccc(Nc2ncnc3cc(OCCOC)c(OCCOC)cc23)c1` [ERLOTINIB] the IC50 was > 2000 nM.

These compounds were tested on NCI-H209 (assay: cells). Settings: Homo sapiens, NCI-H209.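 Note: growth inhibition of human NCI-H209 cells, measured by a cell viability assay.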
Type: functional, cell-based, Homo sapiens
Description: SANGER: Inhibition of human NCI-H209 cell growth in a cell viability assay.
With `C#Cc1cccc(Nc2ncnc3cc(OCCOC)c(OCCOC)cc23)c1` [ERLOTINIB] the IC50 was > 2000 nM.

Each compound was assayed on ES5 (assay: cells). Settings: Homo sapiens, ES5.
Type: functional, cell-based, Homo sapiens
Description: SANGER: Inhibition of human ES5 cell growth in a cell viability assay.
`C#Cc1cccc(Nc2ncnc3cc(OCCOC)c(OCCOC)cc23)c1` [ERLOTINIB] was tested, and the IC50 was > 2000 nM.

The compounds below were run on NOS-1 (assay: cells). Settings: Homo sapiens, NOS-1.
Type: functional, cell-based, Homo sapiens
Description: SANGER: Inhibition of human NOS-1 cell growth in a cell viability assay.
In the case of `C#Cc1cccc(Nc2ncnc3cc(OCCOC)c(OCCOC)cc23)c1` [ERLOTINIB], the IC50 is reported as > 2000 nM.

These compounds were tested on no-10 (assay: cells). Settings: Homo sapiens.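 Note: growth inhibition of no-10 cells, read out with a cell viability assay.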
Type: functional, cell-based, Homo sapiens
Description: SANGER: Inhibition of human no-10 cell growth in a cell viability assay.
For `C#Cc1cccc(Nc2ncnc3cc(OCCOC)c(OCCOC)cc23)c1` [ERLOTINIB], the IC50 was > 2000 nM.

The compounds below were run on EKVX (assay: cells). Settings: Homo sapiens, EKVX.
Type: functional, cell-based, Homo sapiens
Description: SANGER: Inhibition of human EKVX cell growth in a cell viability assay.
`C#Cc1cccc(Nc2ncnc3cc(OCCOC)c(OCCOC)cc23)c1` [ERLOTINIB] showed an IC50 of 1120 nM.

Each compound was assayed on SW 954 (assay: cells). Settings: Homo sapiens, SW 954.
Type: functional, cell-based, Homo sapiens
Description: SANGER: Inhibition of human SW954 cell growth in a cell viability assay.
For `C#Cc1cccc(Nc2ncnc3cc(OCCOC)c(OCCOC)cc23)c1` [ERLOTINIB], the IC50 was > 2000 nM.

Each compound was assayed on CW-2 (assay: cells). Settings: Homo sapiens, CW-2.
Type: functional, cell-based, Homo sapiens
Description: SANGER: Inhibition of human CW-2 cell growth in a cell viability assay.
With `C#Cc1cccc(Nc2ncnc3cc(OCCOC)c(OCCOC)cc23)c1` [ERLOTINIB] the IC50 was > 2000 nM.

What follows are compounds tested on ES8 (assay: cells). Settings: Homo sapiens, ES8.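 Note: growth inhibition of human ES8 cells, read out with a cell viability assay.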
Type: functional, cell-based, Homo sapiens
Description: SANGER: Inhibition of human ES8 cell growth in a cell viability assay.
`C#Cc1cccc(Nc2ncnc3cc(OCCOC)c(OCCOC)cc23)c1` [ERLOTINIB] was tested, and the IC50 was > 2000 nM.

Each compound was assayed on SHP77 (assay: cells). Settings: Homo sapiens, SHP77.
Type: functional, cell-based, Homo sapiens, SHP-77
Description: SANGER: Inhibition of human SHP-77 cell growth in a cell viability assay.
With `C#Cc1cccc(Nc2ncnc3cc(OCCOC)c(OCCOC)cc23)c1` [ERLOTINIB] the IC50 was > 2000 nM.

Each compound was assayed on MOLT-4 (assay: cells). Settings: Homo sapiens, MOLT-4.
Type: functional, cell-based, Homo sapiens
Description: SANGER: Inhibition of human MOLT-4 cell growth in a cell viability assay.
For `C#Cc1cccc(Nc2ncnc3cc(OCCOC)c(OCCOC)cc23)c1` [ERLOTINIB], the IC50 was > 2000 nM.

The compounds below were run on OS-RC-2 (assay: cells). Settings: Homo sapiens, OS-RC-2.
Type: functional, cell-based, Homo sapiens
Description: SANGER: Inhibition of human OS-RC-2 cell growth in a cell viability assay.
With `C#Cc1cccc(Nc2ncnc3cc(OCCOC)c(OCCOC)cc23)c1` [ERLOTINIB] the IC50 was > 2000 nM.
